The record followed here is ChEMBL document CHEMBL4706702 (Bioorg Med Chem, 2021).

Activity calls are given as the source filed them. The calls are words filed in the database; no cut-off is given here.

Data set [1] addresses T1, Mushroom tyrosinase (Agaricus bisporus, UniProt O42713+Q00024+C7FF04+C7FF05). Put plainly: Inhibition of mushroom tyrosinase using L-DOPA as substrate preincubated for 20 mins followed by substrate addition and measured after 10 mins.
Data set [2] in a line: Antioxidant activity assessed as inhibition of DPPH radical activity at 100 uM incubated for 20 mins by spectrophotometric method relative to control. It is filed as functional.
For data set [3], the target named is T2, Mushroom tyrosinase (Agaricus bisporus) (UniProt O42713+Q00024+C7FF04+C7FF05). Put plainly: Inhibition of mushroom tyrosinase using L-DOPA as substrate at 0.5 uM preincubated for 20 mins followed by substrate addition and measured after 10 mins relative to control. Particulars: time 30.0 min.
Data set [4] has as its target T2, Mushroom tyrosinase (Agaricus bisporus). Put plainly: Inhibition of mushroom tyrosinase using L-DOPA as substrate at 10 uM preincubated for 20 mins followed by substrate addition and measured after 10 mins relative to control. Particulars: time 30.0 min.
The target of data set [5] is T1, Mushroom tyrosinase. The data set is described as follows: Inhibition of mushroom tyrosinase using L-DOPA as substrate preincubated for 10 mins followed by substrate addition and measured after 20 mins.
Data set [6] relates to B16-F10. The data set is described as follows: Cytotoxicity against mouse B16F10 cells assessed as reduction in cell viability at 2 to 4 uM after 48 hrs by MTT assay. It is filed as cell-based. Particulars: b16-f10, 48 h, dose 2-4 µM. On the technique in general: Tetrazolium dyes change colour on reduction, which living cells bring about.
Data set [7] relates to B16-F10. The data set is described as follows: Cytotoxicity against mouse B16F10 cells assessed as reduction in cell viability at 8 uM after 48 hrs by MTT assay. It is filed as cell-based. Particulars: b16-f10, 48 h.
The target in data set [8] is T3, Tyrosinase (Mus musculus) (UniProt P11344).
T3 sequence (whole entry): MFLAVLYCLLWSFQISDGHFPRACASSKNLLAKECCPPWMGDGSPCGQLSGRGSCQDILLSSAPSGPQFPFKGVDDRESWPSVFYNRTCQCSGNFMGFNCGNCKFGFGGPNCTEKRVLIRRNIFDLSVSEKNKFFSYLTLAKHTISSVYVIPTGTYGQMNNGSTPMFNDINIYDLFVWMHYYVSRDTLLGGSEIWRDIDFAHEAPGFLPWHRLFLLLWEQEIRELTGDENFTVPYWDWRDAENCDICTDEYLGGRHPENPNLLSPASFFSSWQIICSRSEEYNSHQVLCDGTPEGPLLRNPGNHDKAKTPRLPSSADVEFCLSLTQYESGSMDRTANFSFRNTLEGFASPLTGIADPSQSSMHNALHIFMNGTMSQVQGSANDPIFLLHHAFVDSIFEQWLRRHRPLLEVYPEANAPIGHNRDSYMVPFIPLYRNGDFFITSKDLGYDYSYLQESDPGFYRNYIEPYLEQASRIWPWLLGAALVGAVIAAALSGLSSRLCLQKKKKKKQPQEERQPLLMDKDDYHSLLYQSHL
The data set is described as follows: Inhibition of tyrosinase in mouse B16F10 cells assessed melanin level at 8 uM after 24 hrs relative to control. It is filed as cell-based. Details: scale not given: the % may be the effect or the level left. As to conditions: B16-F10.

The target in data set [9] is T3, Tyrosinase (Mus musculus). The data set is described as follows: Inhibition of tyrosinase in mouse B16F10 cells assessed reduction in melanin level at 2 uM after 24 hrs. It is filed as cell-based. Particulars: B16-F10.
Data set [10] has as its target T2, Mushroom tyrosinase (Agaricus bisporus). The data set is described as follows: Potency index, ratio of kojic acid IC50 to test compound IC50 for inhibition of mushroom tyrosinase using L-DOPA as substrate.
Data set [11] concerns O=c1cc(CSc2nc3ccccc3c(=O)n2Cc2ccccn2)occ1O. The data set is described as follows: Uncompetitive inhibition of mushroom tyrosinase assessed as Vmax at 0.5 uM using L-DOPA as substrate preincubated for 10 mins followed by substrate addition and measured after 10 mins by Lineweaver-Burk plot analysis (reference value: […] OD/min). Particulars: Agaricus bisporus, time 20.0 min.

The test system is the same in data set [12]. The data set is described as follows: Uncompetitive inhibition of mushroom tyrosinase assessed as Km at 10 uM using L-DOPA as substrate preincubated for 10 mins followed by substrate addition and measured after 10 mins by Lineweaver-Burk plot analysis (reference value: […] uM). Particulars: Agaricus bisporus, time 20.0 min.
Data set [13] has the same test system. Put plainly: Uncompetitive inhibition of mushroom tyrosinase assessed as Vmax at 2.5 uM using L-DOPA as substrate preincubated for 10 mins followed by substrate addition and measured after 10 mins by Lineweaver-Burk plot analysis (reference value: […] OD/min). As to conditions: Agaricus bisporus, time 20.0 min.
Data set [14] has the same test system. Put plainly: Uncompetitive inhibition of mushroom tyrosinase assessed as Km at 2.5 uM using L-DOPA as substrate preincubated for 10 mins followed by substrate addition and measured after 10 mins by Lineweaver-Burk plot analysis (reference value: […] uM). Particulars: Agaricus bisporus, time 20.0 min.
Data set [15] shares this test system. The data set is described as follows: Uncompetitive inhibition of mushroom tyrosinase assessed as Km at 0.5 uM using L-DOPA as substrate preincubated for 10 mins followed by substrate addition and measured after 10 mins by Lineweaver-Burk plot analysis (reference value: […] uM). Particulars: Agaricus bisporus, time 20.0 min.
The test system is the same in data set [16]. The data set is described as follows: Uncompetitive inhibition of mushroom tyrosinase assessed as Vmax at 10 uM using L-DOPA as substrate preincubated for 10 mins followed by substrate addition and measured after 10 mins by Lineweaver-Burk plot analysis (reference value: […] OD/min). As to conditions: Agaricus bisporus, time 20.0 min.

Mushroom tyrosinase (Agaricus bisporus) (from UniProt O42713+Q00024+C7FF04+C7FF05), sequence (C7FF05 whole entry, looked up): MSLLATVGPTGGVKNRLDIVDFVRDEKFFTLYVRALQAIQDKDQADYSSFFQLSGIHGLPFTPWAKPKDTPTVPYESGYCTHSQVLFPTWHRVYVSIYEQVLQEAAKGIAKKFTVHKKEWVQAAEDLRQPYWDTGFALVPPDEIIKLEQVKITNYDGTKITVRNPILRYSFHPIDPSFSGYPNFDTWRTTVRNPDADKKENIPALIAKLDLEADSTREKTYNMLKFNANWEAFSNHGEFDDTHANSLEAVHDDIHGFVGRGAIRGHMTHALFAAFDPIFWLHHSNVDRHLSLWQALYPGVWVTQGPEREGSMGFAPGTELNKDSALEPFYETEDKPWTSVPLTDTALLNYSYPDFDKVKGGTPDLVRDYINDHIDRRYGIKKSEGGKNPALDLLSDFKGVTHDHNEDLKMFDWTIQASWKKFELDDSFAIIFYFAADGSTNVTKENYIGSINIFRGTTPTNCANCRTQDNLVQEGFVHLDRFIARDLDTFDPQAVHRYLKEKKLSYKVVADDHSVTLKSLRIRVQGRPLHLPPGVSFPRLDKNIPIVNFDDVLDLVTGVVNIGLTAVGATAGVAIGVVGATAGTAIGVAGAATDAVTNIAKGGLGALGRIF
Mushroom tyrosinase (Agaricus bisporus) (from UniProt O42713+Q00024+C7FF04+C7FF05), sequence (C7FF04 whole entry, looked up): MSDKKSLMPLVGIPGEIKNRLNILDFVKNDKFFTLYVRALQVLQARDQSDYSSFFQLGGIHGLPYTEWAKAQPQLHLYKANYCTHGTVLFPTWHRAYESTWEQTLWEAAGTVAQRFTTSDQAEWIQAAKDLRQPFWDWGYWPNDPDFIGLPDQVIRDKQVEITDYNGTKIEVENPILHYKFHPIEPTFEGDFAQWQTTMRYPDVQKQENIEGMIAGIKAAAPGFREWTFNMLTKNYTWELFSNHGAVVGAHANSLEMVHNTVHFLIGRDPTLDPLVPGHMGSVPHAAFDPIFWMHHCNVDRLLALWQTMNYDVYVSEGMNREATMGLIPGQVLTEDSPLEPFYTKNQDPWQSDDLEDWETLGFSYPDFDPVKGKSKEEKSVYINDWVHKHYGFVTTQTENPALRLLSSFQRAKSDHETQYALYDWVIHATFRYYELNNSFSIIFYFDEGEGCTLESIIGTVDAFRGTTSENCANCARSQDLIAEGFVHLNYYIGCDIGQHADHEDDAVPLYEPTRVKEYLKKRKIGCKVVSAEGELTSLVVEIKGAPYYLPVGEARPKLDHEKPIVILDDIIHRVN
Mushroom tyrosinase (Agaricus bisporus) (from UniProt O42713+Q00024+C7FF04+C7FF05), sequence (Q00024 whole entry, looked up): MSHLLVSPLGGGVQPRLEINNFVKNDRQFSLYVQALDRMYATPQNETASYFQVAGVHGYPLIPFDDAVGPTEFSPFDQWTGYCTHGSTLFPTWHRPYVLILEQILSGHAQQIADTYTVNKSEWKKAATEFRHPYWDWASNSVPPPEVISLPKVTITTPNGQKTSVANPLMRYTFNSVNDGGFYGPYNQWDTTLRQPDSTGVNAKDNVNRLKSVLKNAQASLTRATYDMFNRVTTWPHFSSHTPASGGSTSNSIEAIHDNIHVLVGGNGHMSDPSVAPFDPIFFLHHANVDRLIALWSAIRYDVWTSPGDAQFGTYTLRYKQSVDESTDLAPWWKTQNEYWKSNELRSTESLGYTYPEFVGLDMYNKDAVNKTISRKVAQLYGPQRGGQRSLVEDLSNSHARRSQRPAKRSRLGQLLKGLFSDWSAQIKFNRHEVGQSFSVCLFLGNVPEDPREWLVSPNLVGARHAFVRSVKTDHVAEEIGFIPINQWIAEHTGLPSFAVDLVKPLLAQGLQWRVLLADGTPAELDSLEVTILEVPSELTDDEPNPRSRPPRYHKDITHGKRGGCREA
Mushroom tyrosinase (Agaricus bisporus) (from UniProt O42713+Q00024+C7FF04+C7FF05), sequence (O42713 whole entry, looked up): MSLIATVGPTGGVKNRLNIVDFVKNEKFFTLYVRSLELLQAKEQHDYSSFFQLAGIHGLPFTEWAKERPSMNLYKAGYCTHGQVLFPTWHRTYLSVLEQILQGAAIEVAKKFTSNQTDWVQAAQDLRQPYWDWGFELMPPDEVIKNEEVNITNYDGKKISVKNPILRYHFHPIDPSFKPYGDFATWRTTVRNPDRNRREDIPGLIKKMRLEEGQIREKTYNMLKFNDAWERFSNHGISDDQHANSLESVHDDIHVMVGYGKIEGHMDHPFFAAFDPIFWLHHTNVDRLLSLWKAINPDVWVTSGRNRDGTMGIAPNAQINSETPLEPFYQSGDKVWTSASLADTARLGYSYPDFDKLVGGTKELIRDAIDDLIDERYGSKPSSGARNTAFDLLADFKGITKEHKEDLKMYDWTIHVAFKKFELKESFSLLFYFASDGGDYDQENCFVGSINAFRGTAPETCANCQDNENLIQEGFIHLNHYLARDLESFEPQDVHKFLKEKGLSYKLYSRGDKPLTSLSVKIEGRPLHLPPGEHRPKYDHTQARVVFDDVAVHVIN

Broadly, the IC50 is the concentration that gives 50% inhibition. Usually inhibition stands for the drop in the measured response relative to a control, in per cent. On to `O=c1cc(CSc2nc3ccccc3c(=O)n2Cc2ccccc2)occ1O`, for which the half-maximal inhibitory concentration (IC50) in [1] was 1420 nM. For the same compound, the inhibition was 27.9% in data set [2], 42.5% in [3] and 94.1% in data set [4].

With `O=c1cc(CSc2nc3ccccc3c(=O)n2-c2ccccc2)occ1O`, the IC50 in data set [1] worked out at 1880 nM. In addition, the values for the inhibition in data set [2], in data set [3] and in data set [4] were 31.4%, 43% and 91.7%, respectively.

For `C=CCn1c(SCc2cc(=O)c(O)co2)nc2ccccc2c1=O`, the IC50 in [1] was 1560 nM. Moreover, the inhibition in data set [3] stood at 32.4%; in data set [4], 92%.

In the case of `O=C(Nn1c(-c2ccccc2O)nc2ccccc2c1=O)c1ccco1`, in data set [5], the IC50 came out at 499 nM.

Turning to `O=c1cc(CSc2nc3ccccc3c(=O)n2-c2ccccn2)occ1O`, in data set [1], the IC50 amounted to 500 nM. The values for the Activity result in data set [6], in data set [7] and in data set [8] were “Non-Toxic”, “Toxic” and 69%, respectively. For the same compound, the inhibition came out at 33.8% in data set [2], 50.5% in [3] and 90.9% in data set [4]. Besides, in [9], the inhibition result is “Active”.

Regarding `O=c1cc(CSc2nc3ccccc3c(=O)n2C2CC2)occ1O`, the 50% inhibitory concentration (IC50) in [1] was 2100 nM. In addition, the inhibition came out at 24.5% in data set [2], 23.6% in data set [3] and 82.5% in data set [4]. Also, the Ratio IC50 in data set [10] was determined as 4.

What is called Km is the substrate concentration at which the rate is half of its maximum. Turning to “Mushroom tyrosinase (Agaricus bisporus) (from UniProt O42713+Q00024+C7FF04+C7FF05)”, the figures for the Vmax (optical density/minute) in data set [11], in data set [13] and in data set [16] were 0.27, 0.15 and 0.081, respectively. For the same compound, the Km came to 0.92 µM in data set [12], 1.15 µM in [14] and 1.68 µM in data set [15].

`CC(C)n1c(SCc2cc(=O)c(O)co2)nc2ccccc2c1=O` registered an IC50 in data set [1] of 1440 nM. Besides, the values for the inhibition in [2], in [3] and in data set [4] were 32.6%, 38.6% and 91.2%, respectively.

For the compound `O=c1cc(CSc2nc3ccccc3c(=O)n2Cc2ccccn2)occ1O`, in data set [1], the half-inhibitory concentration (IC50) was determined as 460 nM. The Activity entry was “Non-Toxic” in [6], “Toxic” in data set [7] and 75% in [8]. Moreover, the figures for the inhibition in [2], in data set [3] and in data set [4] were 42.6%, 54.5% and 90.3%, respectively. Further, the inhibition result in data set [9] was “Active”.

On to `CCCn1c(SCc2cc(=O)c(O)co2)nc2ccccc2c1=O`, for which the concentration for half-maximal inhibition (IC50) in [1] amounted to 2310 nM. In addition, the inhibition in data set [2] came out at 22.6%; in [3] it was 24.5%; in data set [4], 90.5%.

Regarding `COc1cccc(C(=O)NN2C(=O)c3ccccc3NC2c2ccc(F)cc2)c1` (configuration not stated), the IC50 in data set [5] was 6 nM.

The compound `O=c1cc(CSc2nc3ccccc3c(=O)n2-c2ccc(Cl)cc2)occ1O` had an IC50 in [1] of 500 nM. Further, the results for the inhibition in data set [2], in data set [3] and in data set [4] were 32.6%, 49.5% and 94.2%, respectively.

In turn, `O=c1cc(CSc2nc3ccccc3c(=O)n2Cc2ccncc2)occ1O` showed a half-maximal inhibitory concentration (IC50) in data set [1] of 2200 nM. In addition, the inhibition in [2] worked out at 39%; in data set [3], 15.9%; in data set [4], 88.5%.

Turning to `Cc1ccc(-n2c(SCc3cc(=O)c(O)co3)nc3ccccc3c2=O)cc1`, in data set [1], the IC50 was 5320 nM. Further, the inhibition in data set [2] stood at 33.3%; in [3], 11.4%; in [4], 77.3%.

In turn, `O=c1cc(CSc2nc3ccccc3c(=O)n2Cc2ccc(F)cc2)occ1O` showed a concentration for half-maximal inhibition (IC50) in data set [1] of 1560 nM. Besides, the inhibition in [2] was found to be 32.6%; in [3], 32.4%; in data set [4] it was 92%.

In data set [1], `O=c1cc(CSc2nc3ccccc3c(=O)n2-c2ccc(Br)cc2)occ1O` came in with an IC50 of 1480 nM. Besides, the results for the inhibition in data set [2], in data set [3] and in data set [4] were 33.3%, 40.1% and 71.7%, respectively.

In turn, `COc1ccc(-n2c(SCc3cc(=O)c(O)co3)nc3ccccc3c2=O)cc1OC` had an IC50 in [1] of 2120 nM. Moreover, the inhibition in data set [2] is 24.5%; in data set [3], 40.1%; in [4], 98.8%.

`O=c1c(O)c(-c2ccc(O)c(O)c2)oc2cc(O)cc(O)c12`: the inhibition in [2] is 4.62%.

Compound `COc1ccc(-n2c(SCc3cc(=O)c(O)co3)nc3ccccc3c2=O)cc1` displayed a concentration for half-maximal inhibition (IC50) in data set [1] of 2400 nM. The inhibition in [2] was 27.1%; in data set [3], 22.1%; in [4], 83.5%.
